PubChem BioAssay AID1054 (Sanford-Burnham Center for Chemical Genomics, 2008)
Calls of active or inactive are those of the source. How the calls were made is not given here.

Biological target: Dual specificity protein phosphatase 6 (Rattus norvegicus) (UniProt Q64346)
Assay: DUSP6 phosphatase inhibition, redox-sensitive – biochemical, rat enzyme, secondary assay (AID 1054)
Conditions: recombinant MKP-3 phosphatase activity, redox-state secondary assay

Sequence of Dual specificity protein phosphatase 6 (Rattus norvegicus) (Q64346 whole entry, looked up): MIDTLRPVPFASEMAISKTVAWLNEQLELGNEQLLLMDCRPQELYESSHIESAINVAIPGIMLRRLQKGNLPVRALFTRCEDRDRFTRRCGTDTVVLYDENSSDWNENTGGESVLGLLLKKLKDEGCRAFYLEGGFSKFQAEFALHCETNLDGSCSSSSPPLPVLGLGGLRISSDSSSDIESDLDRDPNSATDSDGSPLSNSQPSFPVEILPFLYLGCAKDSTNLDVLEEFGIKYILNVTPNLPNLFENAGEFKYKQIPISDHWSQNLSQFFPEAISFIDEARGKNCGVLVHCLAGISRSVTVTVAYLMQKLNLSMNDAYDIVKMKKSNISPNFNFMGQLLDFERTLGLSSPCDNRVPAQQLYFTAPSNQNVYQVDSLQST

Row | IC50 | SMILES
1 | > 100 µM (inactive) | Cn1c(=O)n(-c2ccc(Cl)cc2)c(=O)n([C@@H](Cc2ccccc2)C(N)=O)c1=O
2 | 32.8 µM | COc1cc(C(=S)N2CCC(C)CC2)ccc1O
3 | 55.5 µM | NC(=O)c1cccc2c1NC(C(=O)O)C1CC=CC21 (stereo not drawn)
4 | 47.5 µM | O=C(O)C1Nc2ccc([N+](=O)[O-])cc2C2C=CCC12 (stereo not drawn)
5 | > 100 µM (inactive) | C[C@@H](C(N)=O)n1c(=O)n(Cc2ccccc2)c(=O)n(-c2ccccc2)c1=O
6 | 15.5 µM | O=C(O)c1ccc2c(c1)C1C=CCC1C(C(=O)O)N2 (stereo not drawn)
7 | 4.16 µM | CCC(CC)NC(=S)c1ccc(O)c(OC)c1
8 | > 100 µM (inactive) | O=C(O)c1ccc(N2C(=O)c3ccccc3C2=O)cc1
9 | > 100 µM (inactive) | CCCCCCCCC#CC#CCCCC(=O)O
10 | > 100 µM (inactive) | CCOC(=O)C1Nc2c(O)cc(C)cc2C2C=CCC12 (stereo not drawn)
11 | > 100 µM (inactive) | CC(=O)Nc1ccc2c(c1)C1C=CCC1C(C(=O)O)N2 (stereo not drawn)
12 | > 100 µM (inactive) | Cc1ccccc1Cn1c(=O)n(-c2ccccc2)c(=O)n([C@H](C(=O)O)C(C)C)c1=O
13 | > 100 µM (inactive) | CCCCCCCCCCCCCCCCCCC#CCCCCCCCCCCC(=O)O
14 | > 100 µM (inactive) | CCCCCCCCCCCCCCCCCCC#CCCCCCCCCCCCC(=O)O
15 | 15.6 µM | O=C(Oc1ccc2c(c1)C1C=CCC1C(C(=O)O)N2)c1ccc(Cl)cc1Cl (stereo not drawn)
16 | > 100 µM (inactive) | CCn1c(=O)n(CC)c(=O)n([C@@H](Cc2ccccc2)C(=O)O)c1=O
17 | > 100 µM (inactive) | CCCCCCCCCCCCCCCCCCC#CCCCCCCCC(=O)O
18 | > 100 µM (inactive) | COc1ccc(-n2c(=O)nc(NCCc3cccc(Cl)c3)[nH]c2=O)cc1
